Assay results published in article PMC6856805, “Environmental Risk Assessment for the Active Pharmaceutical Ingredient Mycophenolic Acid in European Surface Waters” (Environmental Toxicology and Chemistry, 2019).
In brackets after ≈: the same amount, converted by molar mass. Read-outs that look alike come from different tables or passages of the source.

Legend:
Screening vapor pressure = type: physicochemical
Excerpt: Syntex derived many basic physicochemical properties for both MPM and MPA in the early 1990s. The results for MPA are mostly given in the present study.
The vapour pressure of MPA was estimated by Syntex by comparing losses of MPA under a nitrogen stream with losses in capped vials and comparing the results with the same losses of a reference substance of known vapour pressure (Young & Licato 1994a).

Anabaena flos-aquae = experiment: microbe, parasite or virus in culture; type: cell-based; settings: 72 h
Excerpt: The new chronic ecotoxicity tests with cyanobacteria (D. Gilberg and G. Chambers, ECT Oekotoxikologie, Flörsheim, Germany, on behalf of F.Hoffmann‐La Roche, Basle, Switzerland, unpublished data), daphnids (P. Egeler and J. Chambers, ECT Oekotoxikologie, Flörsheim, Germany, on behalf of F.Hoffmann‐La Roche, Basle, Switzerland, unpublished data), and fish (D. Gilberg and G. Chambers, unpublished data) fulfilled the validity criteria of the respective OECD guidelines (see the Supplemental Data). […] The following endpoints were determined, all relating to GMMC: NOEC (both growth and yield) 83.9 µg MPA/L, LOEC 284 µg/L, ErC10 155 (95% confidence interval [CI] 137–171) µg/L, and ErC50 423 (95% CI 406–441) µg/L (D. Gilberg and G. Chambers, unpublished data).
An OECD 201 algal growth inhibition test was performed by ECT Oekotoxikologie, Flörsheim, Germany, with the cyanobacterian Anabaena flos-aquae with a series of concentrations of MPA in cyanobacteria test medium in different concentrations plus medium-only controls under continuous lighting over 72 h (Gilberg & Chambers 2017). The growth of the algae was measured by calibrated fluorescence intensity of sonicated test solution samples using a fluorometer after 24, 48 and 72 hours. The test concentrations were analysed by HPLC at the start and end of the test.

Danio rerio = experiment: Fish partial life cycle test, OECD 229 short-term reproduction phase (F0); type: in vivo
Protocol: At the highest tested concentration of 0.1 mg MPA/L nominal concentration (73 µg/L GMMC), only 2 of 75 hatched fish survived until the end of the test, showing that the test concentration range was well chosen. The most sensitive endpoints in this partial life cycle test were survival and growth in terms of length and mass of the young F1 fish; the effects were comparatively small but statistically significant at p = 0.05. In contrast, the F0 generation was impacted to a lesser extent.
In view of the mammalian mutagenicity and reprotoxicity, a fish partial life-cycle test (PLC; an OECD 229 short-term reproduction test followed by an OECD 210 early-life-stage test) was performed by ECT Oekotoxikologie under GLP with a series of concentrations of MPA in a flow-through setting with the zebrafish Danio rerio (Gilberg & Chambers 2018). Briefly, mature fish (F0 generation) in breeding groups of 14 fish were exposed to four concentrations of the test item (0.0005, 0.0029, 0.0171 and 0.100 mg MPA/L), in fish media as well as to controls without the test item, in two replicates per treatment including controls, for 23 days in a 14-hours light to 10-hours dark photoperiod (OECD 229 phase). During this time period, reproduction parameters (survival of parents, fecundity, e.g., number of eggs, fertility and embryo viability/hatchability) of zebrafish exposed to the test item were assessed in comparison with the controls to determine the lowest observed effect concentration (LOEC) and the NOEC. After 23 days, newly fertilised eggs of the F1 generation were collected and exposed to the corresponding series of test item concentrations, 20 eggs in four replicates each per treatment including controls, until 30 days post-hatch (OECD 210 phase). Lethal and sublethal effects of the test item on eggs, larvae and juvenile fish exposed to the test item were assessed in comparison with controls to determine the LOEC and the NOEC. Samples were taken and analysed by LC–MS/MS (Supplemental Information) and the GMMC for the concentrations determined. Statistical check were made using Probit analyses, Weibull analyses, 2- and 3-parameter normal CDF, Shapiro-Wilk’s test on normal distribution, Levene’s test on variance homogeneity, Fisher's Exact Binomial test, Chi² 2×2 Table Test, Welsh t-test, Step-down Cochran-Armitage test Procedure, Williams Multiple Sequential t-test Procedure and Dunnett`s Multiple t-test Procedure.

humans = experiment: Derivation of acceptable daily exposure (ADE); design: species or system human
Protocol: Similarly, potential risk for humans from secondary poisoning is assessed by using the acceptable daily exposure (ADE) value for MPA (T. Pfister, unpublished data), which considers toxicological data as well as human experience and covers all routes of uptake, including sensitive subpopulations, over 365 d/annum, with the combined worst‐case uptake through drinking water and fish. No removal of MPA in drinking water production is assumed, but a default intake of 2 L water and 115 g fish/person and day is assumed (European Commission 2011; Murray‐Smith et al. 2012). This combined uptake is then compared with the ADE.
The ADE was derived based on the available nonclinical and clinical data, with the critical effects identified as 1) immunosuppression and secondary effects thereof and 2) teratogenicity; in addition, the relevance of positive results in genotoxicity tests was assessed (T. Pfister, unpublished data). Based on the NOAEL of 2 mg/kg body weight/d in the 12‐mo oral toxicity study in the rat, an ADE was derived by multiplying this NOAEL by a default body weight of 60 kg for humans and dividing by adjustment factors, namely, 6.2 for extrapolation from rats to humans, 10 for variability between individuals, 1 for study duration of 1 yr for rodents, 5 for severity of systemic toxicity (hematopoiesis, immunotoxicity), and 3 for use of an established NOAEL instead of an NOEL; this derivation results in a first ADE of 0.1 mg MPM/60‐kg person/d. […] The weak clastogenic potential observed at higher doses was considered to be irrelevant at these exposure levels. Because the first ADE was lower than, and therefore also protective of, the second, 0.1 mg MPM/60‐kg person/d was selected as the ADE. Stoichiometrically, this ADE for MPM corresponds to 0.0739 mg MPA/d, which was rounded to 0.075 mg or 75 µg MPA/d. The MTDI for an otter was derived by normalizing the ADE for a 60‐kg human to the otter with a default body mass of 10 kg, resulting in an MTDI of 0.0125 mg or 12.5 µg MPA/10‐kg otter/d.

[1] = design: method as in FASS 2018; settings: OECD 209; ref FASS 2018; cited from earlier work
[2] = tested on: inosine-5'-monophosphate dehydrogenase (IMPDH); design: method as in Wishart et al. 2018; Royal Pharmaceutical Society 2018; settings: ref Wishart et al. 2018; Royal Pharmaceutical Society 2018; cited from earlier work
daphnid = experiment: animal or person; settings: read-out: 48‐h median effect concentration (EC50)

Which Vapor pressure (Screening vapor pressure) does the source give for COc1c(C)c2c(c(O)c1CC=C(C)CCC(=O)O)C(=O)OC2 [MPA, 6‐(1,3‐dihydro‐4‐hydroxy‐6‐methoxy‐7‐methyl‐3‐oxo‐5‐isobenzofuranyl)‐4‐methyl‐4‐hexenoic acid] here?
The Vapor pressure was < 10^–6 hPa.

What about the ErC10 (Anabaena flos-aquae; Anabaena flos-aquae) of the same compound?
The ErC10 was 155 µg/L.

And the LOEC (Anabaena flos-aquae; Anabaena flos-aquae)?
Its LOEC is 284 µg/L.

What about the “NOEC (both growth and yield)” value (Anabaena flos-aquae; Anabaena flos-aquae) of the same compound?
The value was 83.9 µg MPA/L.

What about the EC50 (Anabaena flos-aquae; Dolichospermum flos-aquae, GMMC, read-out: ErC50) of the same compound?
The EC50 was 0.423 µg/mL (≈ 1.32 µM).

What about the “EC10 for survival of the parental fish” value (Danio rerio; 23 d, GMMC) of the same compound?
The value was 18.9 µg/L.

What about the “NOEC of all endpoints (survival of parental fish, fecundity, fertilization success), F0” value (Danio rerio; 23 d, GMMC) of the same compound?
Its value is 73 µg/L.

And the “NOEC of all endpoints (survival of parental fish, fecundity, fertilization success), F0” value (Danio rerio; 23 d, highest tested nominal concentration)?
Its value is 100 µg MPA/L.

What about the “EC10 for fecundity and fertilization success” value (Danio rerio; Danio rerio, in vivo, 23 days) of the same compound?
The value was greater than 73 µg MPA/L.

And the “ADE, rounded” value (humans)?
Its value is 75 µg MPA/d.

What about the “ADE, stoichiometric” value (humans) of the same compound?
Its value is 0.0739 mg MPA/d.

And the “ADE, rounded” value (humans; MPA/d)?
Its value is 0.075 mg.

And the “3‐h EC50, respiration inhibition” value [1]?
The value was 2213 mg/L.

And the “EC10, respiration inhibition” value [1]?
Its value is 69 mg/L (≈ 215 µM).

And the type of inhibition [2]?
Its type of inhibition is “reversible, potent, and noncompetitive inhibitor”.

And the EC50 (daphnid)?
Its EC50 is 755 µg/mL (≈ 2360 µM).
